Measured values taken from ChEMBL document CHEMBL1687862, “Prenylated flavanones with anti-tyrosinase activity from Dalea boliviana” (J Nat Prod, 2011).

Key:
[1] = molecular target: T1, Tyrosinase (Agaricus bisporus) (UniProt O42713); test: Inhibition of mushroom tyrosinase at 100 uM preincubated for 10 mins before addition of 1.7 mM L-tyrosine measured after 20 mins by spectrophotometric method
T1 sequence (whole entry): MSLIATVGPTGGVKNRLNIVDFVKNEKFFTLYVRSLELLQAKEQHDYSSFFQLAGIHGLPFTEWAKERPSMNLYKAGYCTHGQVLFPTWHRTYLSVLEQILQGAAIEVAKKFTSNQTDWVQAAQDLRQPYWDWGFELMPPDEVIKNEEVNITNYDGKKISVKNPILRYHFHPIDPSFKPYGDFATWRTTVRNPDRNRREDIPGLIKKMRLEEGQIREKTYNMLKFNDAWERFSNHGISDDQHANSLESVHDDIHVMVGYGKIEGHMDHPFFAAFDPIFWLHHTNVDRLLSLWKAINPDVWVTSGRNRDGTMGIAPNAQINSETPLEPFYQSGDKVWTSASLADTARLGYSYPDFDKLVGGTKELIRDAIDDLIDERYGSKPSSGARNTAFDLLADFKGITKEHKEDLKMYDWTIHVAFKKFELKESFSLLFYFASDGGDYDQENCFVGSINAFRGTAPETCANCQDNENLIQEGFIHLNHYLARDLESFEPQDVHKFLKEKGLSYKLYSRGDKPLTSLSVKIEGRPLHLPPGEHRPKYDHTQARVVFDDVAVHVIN

[2] = molecular target: T1, Tyrosinase (Agaricus bisporus); test: (§1) Inhibition of mushroom tyrosinase preincubated for 10 mins before addition of 1.7 mM L-tyrosine measured after 20 mins by spectrophotometric method
Tyrosinase = molecular target: T2, Tyrosinase (Agaricus bisporus, UniProt O42713); test: as §1
T2 sequence (O42713 whole entry): T1 sequence (whole entry)

Compound | inhibition [1] [%] | IC5 [2] [µM] | IC50 (Tyrosinase) [µM]
CC1(C)C=Cc2c(cc(O)c3c2O[C@H](c2ccccc2)CC3=O)O1 | 16.2 |  | 
C=CC(C)(C)c1ccc(O)c([C@@H]2CC(=O)c3c(O)cc(O)c(CC=C(C)C)c3O2)c1 | 82.1 | 27.5 | 
CC(C)=CCc1cccc([C@@H]2CC(=O)c3c(O)cc(O)c(CC=C(C)C)c3O2)c1O | 87.8 |  | 68.5
COc1ccc([C@@H]2CC(=O)c3c(O)cc(O)cc3O2)cc1O | 0 |  | 
CC(C)=CCc1cccc([C@@H]2CC(=O)c3c(O)cc4c(c3O2)C=CC(C)(C)O4)c1O | 6.4 |  | 
O=C1C[C@@H](c2ccc(O)cc2)Oc2cc(O)cc(O)c21 | 2.8 |  | 
